Measurements as given in paper PMC10216305, “Introduction of a Polyethylene Glycol Linker Improves Uptake of ^67Cu-NOTA-Conjugated Lactam-Cyclized Alpha-Melanocyte-Stimulating Hormone Peptide in Melanoma” (Cancers, 2023).
Positions of bridges follow the written chain, without caps; N, C: chain ends. Non-standard residues stand in square brackets, D forms with d. Residues, ends and D or L forms follow the SMILES beside them. *: point of attachment. NOTA = O=C(O)CN1CCN(CC(=O)O)CCN(CC(=O)*)CC1; Nle = CCCC[C@H](N)C(=O)O

Assay: in vivo
Design: species or system mice
Conditions: C57, mouse, iv, total radioactivity
Description: All animal studies were conducted in compliance with Institutional Animal Care and Use Committee approval. C57 mice were purchased from Charles River Laboratory (Wilmington, NC). B16/F10 melanoma-bearing C57 mice were generated according to our previous publication. Each melanoma-bearing mouse was injected with 0.037 MBq of ^67Cu-NOTA-PEG2Nle-CycMSHhex or ^67Cu-NOTA-GGNle-CycMSHhex via the tail vein. The tumor uptake specificity of ^67Cu-NOTA-PEG2Nle-CycMSHhex and ^67Cu-NOTA-GGNle-CycMSHhex was determined by co-injecting 10 μg (6.07 nmol) of unlabeled NDP-MSH. Mice were sacrificed at 0.5, 2, 4, and 24 h post-injection, and tumors and organs of interest were harvested, weighed, and counted. The blood value was taken as 6.5% of the whole-body weight.

[1] = 0.037 MBq, Kidneys uptake (renal uptake)
[2] = 0.037 MBq, Normal organ uptake, except for kidney uptake
[3] = 0.037 MBq, Uptake ratio Tumor/blood
[4] = 0.037 MBq, Uptake ratio Tumor/kidney
[5] = 0.037 MBq, Uptake ratio Tumor/liver
[6] = 0.037 MBq, Uptake ratio Tumor/lung
[7] = 0.037 MBq, Uptake ratio Tumor/muscle
[8] = 0.037 MBq, Tumor/liver ratio as times the tumor/liver ratio of ^67Cu-NOTA-GGNle-CycMSHhex

SMILES: CCCC[C@H](NC(=O)CNC(=O)CNC(=O)CN1CCN(CC(=O)O)CCN(CC(=O)O)CC1)C(=O)N[C@H]1CC(=O)NCCCC[C@@H](C(N)=O)NC(=O)[C@H](Cc2c[nH]c3ccccc23)NC(=O)[C@H](CCCNC(=N)N)NC(=O)[C@@H](Cc2ccccc2)NC(=O)[C@H](Cc2c[nH]cn2)NC1=O [^67Cu-NOTA-GGNle-CycMSHhex, ^67Cu-NOTA-GlyGlyNle-CycMSHhex, metal not drawn] ({NOTA}-GG[Nle]DH[dF]RWK-NH2; lactam 4-9)
- tissue uptake dose at 0.5 h (0.037 MBq): 1.46 ± 0.49 %ID
- tissue uptake dose at 2 h (0.037 MBq): 1.3 ± 0.27 %ID
- tissue uptake dose at 4 h (0.037 MBq): 2.7 ± 0.26 %ID
- tissue uptake dose at 24 h (0.037 MBq): 0.94 ± 0.32 %ID
- tissue uptake at 0.5 h (0.037 MBq, Blood uptake): 1.22 ± 0.08 %ID/g
- tissue uptake at 4 h (0.037 MBq, Blood uptake): 0.06 ± 0.07 %ID/g
- tissue uptake at 0.5 h (0.037 MBq, Bone uptake): 0.68 ± 0.1 %ID/g
- tissue uptake at 4 h (0.037 MBq, Bone uptake): 0.06 ± 0.06 %ID/g
- tissue uptake at 4 h (0.037 MBq, Brain uptake): 0.02 ± 0.03 %ID/g
- tissue uptake at 24 h (0.037 MBq, Brain uptake): 0.02 ± 0.02 %ID/g
- tissue uptake at 0.5 h [1]: 7.18 ± 2.63 %ID/g
- tissue uptake at 2 h [1]: 5.08 ± 1.52 %ID/g
- tissue uptake at 4 h [1]: 4.21 ± 0.92 %ID/g
- tissue uptake at 24 h [1]: 1.19 ± 0.28 %ID/g
- tissue uptake at 0.5 h (0.037 MBq, Liver uptake): 1.15 ± 0.07 %ID/g
- tissue uptake at 2 h (0.037 MBq, Liver uptake): 1.49 ± 0.56 %ID/g
- tissue uptake at 24 h (0.037 MBq, Liver uptake): 0.82 ± 0.12 %ID/g
- tissue uptake at 2 h [2]: < 2 %ID/g
- tissue uptake at 2 h (0.037 MBq, Pancreas uptake): 0.12 ± 0.08 %ID/g
- tissue uptake at 24 h (0.037 MBq, Pancreas uptake): 0.02 ± 0.01 %ID/g
- tissue uptake at 24 h (0.037 MBq, Skin uptake): 0.02 ± 0.01 %ID/g
- tissue uptake at 0.5 h (0.037 MBq, Spleen uptake): 0.52 ± 0.32 %ID/g
- tissue uptake at 4 h (0.037 MBq, Spleen uptake): 0.12 ± 0.08 %ID/g
- tissue uptake at 0.5 h (0.037 MBq, Stomach uptake): 1.53 ± 0.53 %ID/g
- tissue uptake at 2 h (0.037 MBq, Stomach uptake): 0.81 ± 0.14 %ID/g
- tissue uptake at 0.5 h (0.037 MBq, Tumor uptake): 16.6 ± 1.4 %ID/g
- tissue uptake at 4 h (0.037 MBq, Tumor uptake): 8.79 ± 1.31 %ID/g
- tissue to tissue ratio at 0.5 h [3]: 13.6
- tissue to tissue ratio at 2 h [3]: 389
- tissue to tissue ratio at 4 h [3]: 146
- tissue to tissue ratio at 24 h [3]: 492
- tissue to tissue ratio at 0.5 h [4]: 2.31
- tissue to tissue ratio at 2 h [4]: 2.29
- tissue to tissue ratio at 4 h [4]: 2.09
- tissue to tissue ratio at 24 h [4]: 4.13
- tissue to tissue ratio at 0.5 h [5]: 14.4
- tissue to tissue ratio at 2 h [5]: 7.83
- tissue to tissue ratio at 4 h [5]: 8.62
- tissue to tissue ratio at 24 h [5]: 6
- tissue to tissue ratio at 0.5 h [6]: 30.7
- tissue to tissue ratio at 2 h [6]: 28.4
- tissue to tissue ratio at 4 h [6]: 23.8
- tissue to tissue ratio at 24 h [6]: 18.2
- tissue to tissue ratio at 0.5 h [7]: 32.5
- tissue to tissue ratio at 2 h [7]: 292
- tissue to tissue ratio at 4 h [7]: 879
- tissue to tissue ratio at 24 h [7]: 492
- tissue uptake dose at 2 h: 1.48 ± 0.17 %ID
- tissue to tissue ratio at 2 h (Uptake ratio Tumor/kidney): 0.19
- tissue to tissue ratio at 2 h (Uptake ratio Tumor/liver): 0.92
- tissue to tissue ratio at 2 h (Uptake ratio Tumor/lung): 2.44

SMILES: CCCC[C@H](NC(=O)COCCOCCNC(=O)CN1CCN(CC(=O)O)CCN(CC(=O)O)CC1)C(=O)N[C@H]1CC(=O)NCCCC[C@@H](C(N)=O)NC(=O)[C@H](Cc2c[nH]c3ccccc23)NC(=O)[C@H](CCCNC(=N)N)NC(=O)[C@@H](Cc2ccccc2)NC(=O)[C@H](Cc2c[nH]cn2)NC1=O [^67Cu-NOTA-PEG2Nle-CycMSHhex, ^67Cu-1,4,7-triazacyclononane-1,4,7-triyl-triacetic acid-polyethylene glycol-Nle-c[Asp-His-DPhe-Arg-Trp-Lys]-CONH2, metal not drawn]
- tissue uptake dose at 0.5 h (0.037 MBq): 0.83 ± 0.09 %ID
- tissue uptake dose at 2 h (0.037 MBq): 0.95 ± 0.16 %ID
- tissue uptake dose at 24 h (0.037 MBq): 0.77 ± 0.12 %ID
- tissue uptake at 0.5 h (0.037 MBq, Blood uptake): 0.63 ± 0.26 %ID/g
- tissue uptake at 0.5 h (0.037 MBq, Bone uptake): 0.6 ± 0.35 %ID/g
- tissue uptake at 0.5 h (0.037 MBq, Brain uptake): 0.04 ± 0.02 %ID/g
- tissue uptake at 24 h (0.037 MBq, Brain uptake): 0.04 ± 0.03 %ID/g
- tissue uptake at 0.5 h (0.037 MBq, Heart uptake): 0.58 ± 0.18 %ID/g
- tissue uptake at 2 h (0.037 MBq, Heart uptake): 0.79 ± 0.06 %ID/g
- tissue uptake at 4 h (0.037 MBq, Heart uptake): 0.34 ± 0.08 %ID/g
- tissue uptake at 0.5 h [1]: 6.43 ± 1.31 %ID/g
- tissue uptake at 2 h [1]: 6.34 ± 1.63 %ID/g
- tissue uptake at 4 h [1]: 2.6 ± 0.79 %ID/g
- tissue uptake at 0.5 h (0.037 MBq, Liver uptake): 0.95 ± 0.19 %ID/g
- tissue uptake at 2 h (0.037 MBq, Liver uptake): 1.09 ± 0.14 %ID/g
- tissue uptake at 4 h (0.037 MBq, Liver uptake): 1.41 ± 0.26 %ID/g
- tissue uptake at 24 h (0.037 MBq, Liver uptake): 0.84 ± 0.15 %ID/g
- tissue uptake at 0.5 h (0.037 MBq, Lung uptake): 0.76 ± 0.16 %ID/g
- tissue uptake at 4 h (0.037 MBq, Lung uptake): 0.62 ± 0.18 %ID/g
- tissue uptake at 0.5 h (0.037 MBq, Muscle uptake): 0.48 ± 0.12 %ID/g
- tissue uptake at 2 h [2]: < 2 %ID/g
- tissue uptake at 4 h [2]: < 2.6 %ID/g
- tissue uptake at 0.5 h (0.037 MBq, Skin uptake): 1.77 ± 0.28 %ID/g
- tissue uptake at 4 h (0.037 MBq, Skin uptake): 0.18 ± 0.07 %ID/g
- tissue uptake at 0.5 h (0.037 MBq, Spleen uptake): 0.37 ± 0.1 %ID/g
- tissue uptake at 0.5 h (0.037 MBq, Stomach uptake): 1.13 ± 0.36 %ID/g
- tissue uptake at 0.5 h (0.037 MBq, Tumor uptake): 8.83 ± 2.19 %ID/g
- tissue uptake at 4 h (0.037 MBq, Tumor uptake): 24.1 ± 1.83 %ID/g
- tissue uptake at 24 h (0.037 MBq, Tumor uptake): 9.13 ± 1.66 %ID/g
- tissue to tissue ratio at 2 h [8]: 3.3
- tissue to tissue ratio at 4 h [8]: 2
- tissue to tissue ratio at 24 h [8]: 1.8
- tissue to tissue ratio at 4 h [3]: 482
- tissue to tissue ratio at 24 h [3]: 456
- tissue to tissue ratio at 0.5 h [4]: 1.37
- tissue to tissue ratio at 2 h [4]: 4.41
- tissue to tissue ratio at 4 h [4]: 9.27
- tissue to tissue ratio at 24 h [4]: 10.1
- tissue to tissue ratio at 0.5 h [5]: 9.29
- tissue to tissue ratio at 2 h [5]: 25.7
- tissue to tissue ratio at 4 h [5]: 17.1
- tissue to tissue ratio at 0.5 h [6]: 11.6
- tissue to tissue ratio at 2 h [6]: 52.8
- tissue to tissue ratio at 4 h [6]: 38.9
- tissue to tissue ratio at 24 h [6]: 26.1
- tissue to tissue ratio at 0.5 h [7]: 18.4
- tissue to tissue ratio at 2 h [7]: 34.5
- tissue to tissue ratio at 4 h [7]: 803
- tissue to tissue ratio at 24 h [7]: 913
- tissue uptake dose at 2 h: 2.09 ± 0.96 %ID
- tissue to tissue ratio at 2 h (Uptake ratio Tumor/kidney): 0.34
- tissue to tissue ratio at 2 h (Uptake ratio Tumor/liver): 0.98
- tissue to tissue ratio at 2 h (Uptake ratio Tumor/lung): 2.44
- tissue to tissue ratio at 2 h (Uptake ratio Tumor/muscle): 166
